US7462600B2, “Macrolides” (Pfizer Inc, priority 2004, dated 2008)
Values after ≈ are worked out from the molar mass of the structure shown. Where two headings read alike, the source gives them in different places.

Tests used:
Format in all cases: cell-based
[1] = tested on: Streptococcus pyogenes 1079; experiment: MIC, microtiter broth dilution (NCCLS M100-S14), S. pyogenes 1079 (ermB)
Procedure: (§1) The assay described herein includes a panel of bacterial strains assembled to include a variety of target pathogenic species, including representatives of macrolide resistance mechanisms that have been characterized. In many cases, both the macrolide-susceptible parent strain and the macrolide-resistant strain derived from it are available to provide a more accurate assessment of the compound's ability to circumvent the resistance mechanism. The assay is performed in microtiter trays and interpreted according to Performance Standards for Antimicrobial Susceptibility Testing; 14th Informational Supplement (M100-S14), published by The National Committee for Clinical Laboratory Standards (NCCLS) guidelines; the MIC is used to compare strains. Compounds are initially dissolved in DMSO as 40 mg/ml stock solutions.

[2] = tested on: Streptococcus pneumoniae 1016; experiment: MIC, microtiter broth dilution (NCCLS M100-S14), S. pneumoniae 1016 (susceptible)
Procedure: as §1

[3] = tested on: Streptococcus pneumoniae 1095; conditions: microtiter broth dilution
Procedure: as §1

[4] = tested on: Streptococcus pneumoniae 1175; conditions: microtiter broth dilution
Procedure: as §1

[5] = tested on: Haemophilus influenzae 1218; experiment: MIC, microtiter broth dilution (NCCLS M100-S14), H. influenzae 1218 (susceptible)
Procedure: as §1

[6] = S. pneumoniae 1016 (susceptible)
[7] = H. influenzae 1218 (susceptible)

SMILES	MIC S. pyogenes 1079 ([1]; Streptococcus pyogenes 1079) [µg/mL]	MIC S. pneumo. 1016 ([2]; Streptococcus pneumoniae 1016) [µg/mL]	MIC S. pneumo. 1095 ([3]; Streptococcus pneumoniae 1095) [µg/mL]	MIC S. pneumo. 1175 ([4]; Streptococcus pneumoniae 1175) [µg/mL]	MIC H. influenzae 1218 ([5]; Haemophilus influenzae 1218) [µg/mL]	MIC S. pyogenes 1079 ([1]; S. pyogenes 1079 (ermB)) [µg/mL]	MIC S. pneumo. 1016 [2, 6] [µg/mL]	MIC S. pneumo. 1095 ([3]; S. pneumoniae 1095 (ermB)) [µg/mL]	MIC S. pneumo. 1175 ([4]; S. pneumoniae 1175 (mefA)) [µg/mL]	MIC H. influenzae 1218 [5, 7] [µg/mL]
CCC1OC(=O)C(C)C(=O)C(C)C(OC2OC(C)CC(N(C)C)C2O)C(C)(OC)CC(C)C(=O)C(C)C2N(C3CN(Cc4ccnc5c(OC)cccc45)C3)C(=O)OC12C (centres unmarked) [Example 1.84, 3-descladinosyl-11,12-dideoxy-6-O-methyl-3-oxo-12,11-(oxycarbonyl-(1-(8-methoxyquinoline-4-methyl)-azetidin-3-yl)-imino)erythromycin A]	8 (≈ 9.53 µM)	<0.063	<0.063	<0.063	2 (≈ 2.38 µM)	–	–	–	–	–
CCC1OC(=O)C(C)C(=O)C(C)C(OC2OC(C)CC(N(C)C)C2O)C(C)(OC)CC(C)C(=O)C(C)C2N(C3CN(S(=O)(=O)c4cccc5nccnc45)C3)C(=O)OC12C (centres unmarked) [Example 3.93, 3-descladinosyl-11,12-dideoxy-4-O-methyl-3-oxo-12,11-(oxycarbonyl-(1-(quinoxaline-5-sulfonyl)-azetidin-3-yl)-imino)-erythromycin A]	1 (≈ 1.16 µM)	<0.06	<0.06	<0.06	0.25 (≈ 0.291 µM)	–	–	–	–	–
CCC1OC(=O)C(C)C(=O)C(C)C(OC2OC(C)CC(N(C)C)C2O)C(C)(OC)CC(C)C(=O)C(C)C2N(C3CN(Cc4ccc(=O)n5ccccc45)C3)C(=O)OC12C (centres unmarked) [Example 1.82, 3-descladinosyl-11,12-dideoxy-6-O-methyl-3-oxo-12,11-(oxycarbonyl-(1-(4H-quinolizin-4-one-1-methyl)-azetidin-3-yl)-imino)-erythromycin A]	4 (≈ 4.85 µM)	<0.063	<0.063	<0.063	0.5 (≈ 0.606 µM)	–	–	–	–	–
CCC1OC(=O)C(C)C(=O)C(C)C(OC2OC(C)CC(N(C)C)C2O)C(C)(OC)CC(C)C(=O)C(C)C2N(CC3CCCN3C(=O)c3ccc4ccccc4n3)C(=O)OC12C (centres unmarked) [10.08]	–	–	–	–	–	>64.00	<0.06	<0.06	2 (≈ 2.35 µM)	2 (≈ 2.35 µM)
CC[C@H]1OC(=O)[C@H](C)C(=O)[C@H](C)[C@@H](O[C@@H]2O[C@H](C)C[C@H](N(C)C)[C@H]2O)[C@](C)(OC)C[C@@H](C)C(=O)[C@H](C)[C@H]2N(C3CN(Cc4c(C#N)cnc5ccccc45)C3)C(=O)O[C@]12C [Example 1.73, 3-descladinosyl-11,12-dideoxy-6-O-methyl-3-oxo-12,11-(oxycarbonyl-(1-(quinoline-3-carbonitrile-4-methyl)-azetidin-3-yl)-imino)erythromycin A]	0.125 (≈ 0.15 µM)	<0.063	<0.063	<0.063	2 (≈ 2.4 µM)	–	–	–	–	–
CC[C@H]1OC(=O)[C@H](C)C(=O)[C@H](C)[C@@H](O[C@@H]2O[C@H](C)C[C@H](N(C)C)[C@H]2O)[C@](C)(OC)C[C@@H](C)C(=O)[C@H](C)[C@H]2N(CC3(C)CN(Cc4ccc5[nH]ccc5c4)C3)C(=O)O[C@]12C [6.10]	–	–	–	–	–	>64.00	<0.06	0.25 (≈ 0.303 µM)	0.12 (≈ 0.145 µM)	1 (≈ 1.21 µM)
CCC1OC(=O)C(C)C(=O)C(C)C(OC2OC(C)CC(N(C)C)C2O)C(C)(OC)CC(C)C(=O)C(C)C2N(C3CN(Cc4c(C)cnc5ccccc45)C3)C(=O)OC12C (centres unmarked) [Example 1.98, 3-descladinosyl-11,12-dideoxy-6-O-methyl-3-oxo-12,11-(oxycarbonyl-(1-(3-methylquinoline-4-methyl)-azetidin-3-yl)-imino)-erythromycin A]	0.25 (≈ 0.304 µM)	<0.063	<0.063	<0.063	2 (≈ 2.43 µM)	–	–	–	–	–
CCC1OC(=O)C(C)C(=O)C(C)C(OC2OC(C)CC(N(C)C)C2O)C(C)(OC)CC(C)C(=O)C(C)C2N(CC3CN(Cc4n[nH]c5ccccc45)C3)C(=O)OC12C (centres unmarked) [4.22]	32 (≈ 39.4 µM)	<0.06	2 (≈ 2.46 µM)	0.25 (≈ 0.308 µM)	0.12 (≈ 0.148 µM)	–	–	–	–	–
CCC1OC(=O)C(C)C(=O)C(C)C(OC2OC(C)CC(N(C)C)C2O)C(C)(OC)CC(C)C(=O)C(C)C2N(C3CN(Cc4ccc(OC)c5nccnc45)C3)C(=O)OC12C (centres unmarked) [Example 1.105]	8 (≈ 9.52 µM)	<0.063	<0.063	0.125 (≈ 0.149 µM)	1 (≈ 1.19 µM)	–	–	–	–	–
CC[C@H]1OC(=O)[C@H](C)[C@@H](OC(=O)N2CCCC2c2cccc(F)c2)[C@H](C)[C@@H](O[C@@H]2O[C@H](C)C[C@H](N(C)C)[C@H]2O)[C@](C)(OC)C[C@@H](C)C(=O)[C@H](C)[C@H]2N(CC3CN(Cc4c[nH]c5ncccc45)C3)C(=O)O[C@]12C (some centres unmarked) [Example 5.05, 3-descladinosyl-11,12-dideoxy-6-O-methyl-12,11-(oxycarbonyl-(1-((1H-pyrrolo[2,3-b]pyridin-3-yl)-methyl)-(azetidin-3-yl)-methyl)-imino)-3-((2-(3-fluorophenyl)-pyrrolidine)-1-carbonyl)-erythromycin A]	4 (≈ 3.98 µM)	<0.06	2 (≈ 1.99 µM)	0.5 (≈ 0.497 µM)	8 (≈ 7.96 µM)	–	–	–	–	–
CCC1OC(=O)C(C)C(=O)C(C)C(OC2OC(C)CC(N(C)C)C2O)C(C)(OC)CC(C)C(=O)C(C)C2N(C3CN(S(=O)(=O)c4c(Cl)nc5sccn45)C3)C(=O)OC12C (centres unmarked) [Example 3.97, 3-descladinosyl-11,12-dideoxy-6-O-methyl-3-oxo-12,11-(oxycarbonyl-(1-(6-chloroimidazo[2,1-b]thiazole-5-sulfonyl)-azetidin-3-yl)-imino)-erythromycin A]	1 (≈ 1.13 µM)	–	0.25 (≈ 0.281 µM)	<0.063	0.125 (≈ 0.141 µM)	–	–	–	–	–
CCC1OC(=O)C(C)C(=O)C(C)C(OC2OC(C)CC(N(C)C)C2O)C(C)(OC)CC(C)C(=O)C(C)C2N(C3CN(Cc4cccc(-n5ccnn5)c4)C3)C(=O)OC12C (centres unmarked) [Example 1.56, 3-([1,2,3]triazol-1-yl)benzyl]	>64.00	–	<0.06	<0.06	1 (≈ 1.21 µM)	–	–	–	–	–
CCC1OC(=O)C(C)C(=O)C(C)C(OC2OC(C)CC(N(C)C)C2O)C(C)(OC)CC(C)C(=O)C(C)C2N(C3CN(Cc4ccc(-n5ccnc5)cc4)C3)C(=O)OC12C (centres unmarked) [Example 1.57, 4-(imidazol-1-yl)benzyl]	64 (≈ 77.7 µM)	–	<0.06	<0.06	1 (≈ 1.21 µM)	–	–	–	–	–
CCC1OC(=O)C(C)C(=O)C(C)C(OC2OC(C)CC(N(C)C)C2O)C(C)(OC)CC(C)C(=O)C(C)C2N(C3CN(Cc4ccccc4OC(F)(F)F)C3)C(=O)OC12C (centres unmarked) [Example 1.88, 3-descladinosyl-11,12-dideoxy-6-O-methyl-3-oxo-12,11-(oxycarbonyl-(1-(2-(trifluoromethoxy)benzene-1-methyl)-azetidin-3-yl)-imino)-erythromycin A]	8 (≈ 9.5 µM)	<0.063	–	–	0.5 (≈ 0.594 µM)	–	–	–	–	–
